Patent US5800838A, “Composition that inhibits or destroys at least one unicellular living organism containing fluorine F- and Lithium li+” (priority 1987, dated 1998)
In brackets after ≈: the same amount, converted by molar mass. Like-named read-outs stand apart in the source and are kept apart here.

Experiments:
Pseudomonas aeruginosa [1] = assay: MIC on 200 wild-type strains of Pseudomonas aeruginosa (Examples 19 and 20); assay type: cell-based
Description: With the same methodology as above, the MIC values of benzalkonium chloride alone, in the presence of the KATHON CG (registered trademark) preservative (1 mg/l), and then in the presence of KATHON CG (registered trademark) (1 mg/l) and lithium fluoride (1 mg/l), were determined. 200 wild-type strains of Pseudomonas aeruginosa were tested.
The same trial as in Example 19 was performed, but with nonoxinol 9 as the primary active principle: 200 wild-type strains of Pseudomonas aeruginosa were also tested.

Gardnerella vaginalis = assay: Number of strains inhibited, bactericidal substance incorporated in culture medium (first trial); assay type: cell-based; details: NaF or LiF 1 mg/l where added
Description: In the first trial, the sample of bactericidal substance was incorporated directly in the specific culture edium of the microorganism. A concentration series of the bactericidal substance was prepared in the geometric ratio of 2, from 400 μg/ml to 1.56 μg/ml. The cell concentration used in the seeding of the Petri dishes was […]. A 24-hour incubation was performed at 37° C. and then, for each wild-type strain tested, the concentration of primary principle destroying all the microorganisms (see method of Professor F. CATALAN et al., Institut A. FOURNIER, PARIS) was determined. The trail was performed on 32 wild-type strains of Gardnerella vaginalis originating from hospital sources and with benzalkonium chloride and then nonoxinol 9 as active principles, and with sodium fluoride NaF at a concentration of 1 mg/l and then lithium fluoride LiF at a concentration of 1 mg/l as activating principles.

Group C streptococcus = assay: Activity on wild-type hospital strains responsible for skin infections; assay type: cell-based; details: Streptococcus
Escherichia coli = assay: as above; assay type: cell-based; details: Escherichia coli, read-out: 100% inhibitory concentration
staphylococcus aeurus = assay type: cell-based; details: Fli 4 ppm
Description: Strains Gram+ and Gram- (wild-type hospital) having a resistant phenotype vis a vis standard firstly and secondly used antibiotherapy were experimented on activated antibiotics.
250 experiments were conducted on the following strains: Streptococcus group B, C, D, F, G, Staphylococcus aureus, Staphylococcus epidermitis, Klebsiella pneumoniae, Klebsiella spirochete, Klebsiella oxytoca, Proteus mirabilis, Serratia marcescens, Escherichia coli, Citrobacter freundii, Enterobacter cloacae, Enterobacter calcoaceticus, Salmonella spirochete, Salmonella typhimurium, Pseudomonas aeruginosa, Haemophilus influenzae, Haemophilus sphrophilus, Acinetobacter calcoaeticus. […]

spermatozoa [2] = assay: SANDERS-CRAMER total spermicidal test according to IPPF standards; assay type: cell-based
spermatozoa [3] = details: alone; cited from earlier work
[4] = tested on: pseudomonas aeruginosa and Escherichia coli; assay type: cell-based
Description: It is known that a strain develops a resistance against an antibiotic substance with which it is left in contact, by a phenotypical mutation procedure.
This phenomena has been studied on pseudomonas aeruginosa and Escherichia coli (wild-type hospital strains) which commonly develop resistance against aminosides. The antibiotic substance choosen was thus gentamicine which is an aminoside antibiotic.
And the growth of the resistance was studied with gentamicine alone, then with gentamicine in presence of Fli.
The trial was conducted on 12 days, and the MIC of gentamicine alone and of gentamicine in presence of Fli (4 ppm) was determined each day on transportplates in liquid medium with a serie of dilution in Mueller/Hinton agar.
The MBC (Minimal Bactericide Concentration) was also determined from the solution after determination of the MIC seeded on agar adapted to the strain. The MBC is read for a percentage of survivors less than 0,20%.

serratia marcescens [5] = assay: "Time killing curve", optical density at 600 nm; assay type: cell-based; details: Fli 32 ppm
Description: (§1) The kinetics of the bacterial growth of serratia marcescens and salmonella spirochete has been studied with the "Time killing curve" methodology, for gentamicine (64 ppm) alone, Fli (32 ppm) and gentamicine (64 ppm) in presence of Fli (32 ppm). The bacterial growth is determined by spectrophotometric reading of the optical density for a wavelength of 600 nm.
(§2) The following table illustrates the optical density (1/100) obtained: […]

salmonella spirochete = assay: "Time killing curve", optical density at 600 nm; assay type: cell-based; details: Fli 32 ppm
Description: as §1, §2

proteus mirabilis = assay: "chess" test, dilution in liquid medium, Trial 2; assay type: cell-based
Description: (§3) Substance A was gentamicine
The strain was a very resistant proteus mirabilis (wild-type hospital)

Pseudomonas aeruginosa [6] = assay: MIC of gentamicine, inclined agar with concentration gradient; assay type: cell-based; details: in presence of Fli at 16; RESISTANT strains
Description: (§4) The strains used were wild-type hospital strains having a resistant phenotype as regards gentamicine: pseudomonas aeruginosa, proteus mirabilis, serratia marcescens.
(§5) The phenotype of the strains was determined by diffusion in gradient on selective agar. Then, each group of strains having the same phenotype (resistant or sensible) was seeded on inclined agar having a gradient of concentration of the composition.
(§6) This methodology is explained by SZYBALSKI and BRYSON in "Selection de mutants resistant aux antibiotiques", L'antibiogramme, Vigot, p. 259-260.
(§7) The results are shown in the following table illustrating the MIC of gentamicine (aminoglycoside antibiotic).
(§8) x/y means a concentration read between x ppm and y ppm.

serratia marcescens [7] = assay: as above; assay type: cell-based
Description: as §4, §5, §6, §7, §8

Klebsiella pneumoniae = assay: "chess" test, dilution in liquid medium, Trial 3; assay type: cell-based
Description: as §3
The strain was Klebsiella pneumoniae (wild-type hospital strain)

Pseudomonas aeruginosa [8] = assay: "chess" test, dilution in liquid medium, Trial 4; assay type: cell-based
Description: as §3
The strain was pseudomonas aeruginosa (wild-type hospital resistant strain)

[9] = A (gentamicine) in presence of B (Fli)

CCCCCCCCCc1ccc(OCCOCCOCCOCCOCCOCCOCCOCCOCCO)cc1 [Nonoxinol 9]
MIC (Pseudomonas aeruginosa [1]; + KATHON CG (1 mg/l) + LiF (1 mg/l), strain Tic R βLac^+): 64 µg/mL | MIC (Pseudomonas aeruginosa [1]; + KATHON CG (1 mg/l) + LiF (1 mg/l), strain Tic R βLac^+ OXA): 64 µg/mL | MIC (Pseudomonas aeruginosa [1]; + KATHON CG (1 mg/l) + LiF (1 mg/l), strain Tic R βLac^+ PSE): 64 µg/mL | MIC (Pseudomonas aeruginosa [1]; + KATHON CG (1 mg/l) + LiF (1 mg/l), strain Tic R βLac^+ TEM): 64 µg/mL | MIC (Pseudomonas aeruginosa [1]; + KATHON CG (1 mg/l) + LiF (1 mg/l), strain Tic R βLac^+ cephalosporinase): 128 µg/mL | MIC (Pseudomonas aeruginosa [1]; + KATHON CG (1 mg/l) + LiF (1 mg/l), strain Tic S βLac^-): 32 µg/mL | MIC (Pseudomonas aeruginosa [1]; alone, strain Tic R βLac^+): 128 µg/mL (≈ 208 µM) | MIC (Pseudomonas aeruginosa [1]; alone, strain Tic R βLac^+ OXA): 128 µg/mL (≈ 208 µM) | MIC (Pseudomonas aeruginosa [1]; alone, strain Tic R βLac^+ PSE): 64 µg/mL (≈ 104 µM) | MIC (Pseudomonas aeruginosa [1]; alone, strain Tic R βLac^+ TEM): 128 µg/mL (≈ 208 µM) | MIC (Pseudomonas aeruginosa [1]; alone, strain Tic R βLac^+ cephalosporinase): 256 µg/mL (≈ 415 µM) | MIC (Pseudomonas aeruginosa [1]; alone, strain Tic S βLac^-): 64 µg/mL (≈ 104 µM) | number of strains inhibited out of the 32 tested (Gardnerella vaginalis; primary active principle 1.56 mg/l): 0 | number of strains inhibited out of the 32 tested (Gardnerella vaginalis; primary active principle 3.125 mg/l): 0 | number of strains inhibited out of the 32 tested (Gardnerella vaginalis; primary active principle 6.25 mg/l): 0 | number of strains inhibited out of the 32 tested (Gardnerella vaginalis; primary active principle 12.5 mg/l): 0 | number of strains inhibited out of the 32 tested (Gardnerella vaginalis; primary active principle 25 mg/l): 4 | number of strains inhibited out of the 32 tested (Gardnerella vaginalis; primary active principle 50 mg/l): 6 | number of strains inhibited out of the 32 tested (Gardnerella vaginalis; primary active principle 100 mg/l): 10 | number of strains inhibited out of the 32 tested (Gardnerella vaginalis; primary active principle 200 mg/l): 25 | number of strains inhibited out of the 32 tested (Gardnerella vaginalis; primary active principle 400 mg/l): 32

CC[C@H]1OC(=O)[C@H](C)[C@@H](O[C@H]2C[C@@](C)(OC)[C@@H](O)[C@H](C)O2)[C@H](C)[C@@H](O[C@@H]2O[C@H](C)C[C@H](N(C)C)[C@H]2O)[C@](C)(O)C[C@@H](C)C(=O)[C@H](C)[C@@H](O)[C@]1(C)O [ERYTHROMYCIN, erythromycin]
MIC (Group C streptococcus; read-out: 100% inhibitory concentration, alone): > 0.25 µg/mL | MIC (Group C streptococcus; read-out: 100% inhibitory concentration, in the presence of LiF 4 ppm): 0.125 µg/mL | MIC (Escherichia coli; alone): > 64 µg/mL | MIC (Escherichia coli; in the presence of LiF 8 ppm): 32 µg/mL | phenotype in presence of Fli (staphylococcus aeurus): the resistant phenotype was not changed

[Cl-].[Li+] [lithium chloride]
MIC (spermatozoa [2]; alone): 20 ppm | MIC, equivalent in % (spermatozoa [2]; alone): 0.002%

F [F^- ions]
MIC (minimal inhibitory concentration) (spermatozoa [3]): 5 ppm | MIC, equivalent in % (spermatozoa [3]): 0.0005%

[Li+] [Li^+ ions]
spermicidal effect (spermatozoa [2]; in words): A spermicidal effect

gentamicine
day the resistance appears ([4]; gentamicine alone): the third or fourth day | day the resistance appears ([4]; gentamicine with Fli (4 ppm)): the fourth or sixth day | optical density (1/100) (serratia marcescens [5]; 6 h 00, gentamicine 64 ppm): 5 1/100 | optical density (1/100) (serratia marcescens [5]; 24 h 00, gentamicine 64 ppm): 4 1/100 | optical density (1/100) (salmonella spirochete; 3 h 00, gentamicine 64 ppm): 8 1/100 | optical density (1/100) (salmonella spirochete; 6 h 00, gentamicine 64 ppm): 7 1/100 | MIC A/B (proteus mirabilis; [9]): 16 µg/mL | MIC alone (MIC A, MIC B) (proteus mirabilis; alone, very resistant wild-type hospital strain): 64 µg/mL | MIC (Pseudomonas aeruginosa [6]): 64 ppm or mg/l | MIC (serratia marcescens [7]; in presence of Fli at 8, SENSIBLE strains): 8 ppm or mg/l | MIC (serratia marcescens [7]; in presence of Fli at 16, RESISTANT strains): 32 ppm or mg/l | MIC A/B (Klebsiella pneumoniae; [9]): 4 µg/mL | MIC alone (MIC A, MIC B) (Klebsiella pneumoniae; alone, wild-type hospital strain): 16 µg/mL | MIC A/B (Pseudomonas aeruginosa [8]; [9]): 16 µg/mL | MIC alone (MIC A, MIC B) (Pseudomonas aeruginosa [8]; alone, wild-type hospital resistant strain): 64 µg/mL
